Our source for the EC50, IC50 and outcome values is PubChem BioAssay AID179 (DTP/NCI, 2004).

The subject of this test is CEM cells HIV-1 protection, formazan growth assay. Briefly: NCI AIDS Antiviral Assay. To be noted: for IC50: measured here: growth of uninfected CEM cells. The essentials:
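Steps: treat uninfected and HIV-1-infected human CEM cells at five drug levels; quantify growth by soluble formazan; retest any compound reaching 50% protection; classify actives from the retest.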

Calls of active or inactive are those of the source.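 Rule for the calls: active = compounds giving half or more protection of infected cells from virus-caused growth loss, again on retest; inactive = the rest.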

In general, EC50 refers to the concentration at which the effect is half-maximal. The IC50 is the concentration needed to halve the response being measured. Regarding `O=C1OC(=O)C2C3CC(C4N=NN(c5ccccc5)C34)C12` (centres undefined), the EC50 is greater than 200 µM and the 50% inhibitory concentration (IC50) was greater than 200 µM.
`CSc1nnnc2ccccc12`: the EC50 was greater than 200 µM and the IC50 came to 145 µM.
In the case of `[Li+]`, the outcome was inactive.
For the compound `CSc1c(C(N)=O)c2c(N)ncnc2n1C1OC(CO)C(O)C1O` (centres undefined), the EC50 was greater than 2 µM and the concentration for half-maximal inhibition (IC50) was 1.02 µM.
In the same order, the values of `CC(=O)ON(OC(C)=O)c1ccc(C)cc1` are greater than 200 µM and greater than 200 µM.
`CCOC(=O)C(=O)/C(=C/N1CCNC1=S)C(=O)OCC`: the result was inactive.
The same measure, in the same setting: the value for `Nc1ccc2cc(S(=O)(=O)O)c(N=Nc3ccc(-c4ccc(N=Nc5c(S(=O)(=O)O)cc6cc(S(=O)(=O)O)cc(N)c6c5O)cc4)cc3)c(O)c2c1` was “inactive”.
For the compound `C=CCCC(CCC=C)(C(=O)O)C(=O)O`, the EC50 was greater than 1170 µM and the IC50 was greater than 1170 µM.
Consider `O=C(O)CSC(=S)N1CCCC1`, for which the EC50 was greater than 200 µM and the half-inhibitory concentration (IC50) turned out to be 102 µM.
Consider `CCCCCCCCC(=O)NCCN(CCN)C(=O)CCCCCCCC`, for which the EC50 is greater than 100 µM and the IC50 was found to be 5.5 µM.
In the case of `COC(=O)NC(Nc1ccc(C)cc1)(C(F)(F)F)C(F)(F)F`, the outcome was inactive.
As to `O=c1[nH]c(=O)n(C2CC(O)C(CO)O2)cc1OCC1CCCCC1` (centres undefined), the EC50 is greater than 200 µM and the IC50 is greater than 200 µM.
For `NS(=O)(=O)c1ccc(NC(=O)CC(=O)Nc2ccc(S(N)(=O)=O)cc2)cc1`, the result was inactive.
Take `Cc1cn([C@H]2C[C@@H]3[C@@H](COC(CC[Se]C#N)N3O)O2)c(=O)[nH]c1=O` (some centres undefined): the half-maximal effective concentration (EC50) was 3.98 µM and the IC50 is 28.8 µM.
For `CC(C)CCCC(C)[C@H]1CC[C@H]2[C@@H]3CC[C@H]4C[C@@H](CCC=C(c5cc(Cl)c(OCc6ccc([N+](=O)[O-])cc6)c(C(=O)O)c5)c5cc(Cl)c(OCc6ccc([N+](=O)[O-])cc6)c(C(=O)O)c5)CC[C@]4(C)[C@H]3CC[C@]12C` (some centres undefined), the EC50 is greater than 100 µM and the IC50 is greater than 100 µM.
Regarding `COC(=O)C(NC(=O)CSc1nnc(COc2ccc(Cl)cc2)n1-c1ccccc1)C(C)C` (centres undefined), the EC50 is greater than 200 µM and the 50% inhibitory concentration (IC50) is 12 µM.
For `COc1cccc2c1CCc1cc3c(N)nc(N)nc3nc1-2`, the EC50 is greater than 200 µM and the IC50 worked out at 5.25 µM.
Regarding `Cc1cc(N=O)cc(C)c1O`, the EC50 was greater than 200 µM and the half-maximal inhibitory concentration (IC50) was determined as 5.13 µM.
In the same order, the values of `CCN(CC)CC(C)(C)C(=O)/C=C/c1ccc(Cl)cc1` are greater than 200 µM and 7.24 µM.
On to `O=C(NCCN1CCCCC1)c1ccc(I)cc1`, for which the EC50 is greater than 200 µM and the half-maximal inhibitory concentration (IC50) is greater than 200 µM.
Take `NC(N)=N/N=C(\c1ccccc1)C(O)c1ccccc1` (centres undefined): the EC50 was greater than 200 µM and the 50% inhibitory concentration (IC50) is 107 µM.
The matching figures for `CCN(CC)/[N+]([O-])=N/OCC(C)O` (centres undefined): greater than 8130 µM and greater than 8130 µM.
As for `Nc1nc(SSc2nc(N)nc3c2ncn3C2OC(CO)C(O)C2O)c2ncn(C3OC(CO)C(O)C3O)c2n1` (centres undefined), the EC50 was greater than 20 µM and the IC50 is 0.339 µM.
On to `O=C(O/C(=C(/N=Nc1ccccc1)c1ccccc1)c1ccccc1)c1ccccc1`, for which the result was inactive.
For the compound `C[N+](C)(C)CC1C2C=CC(C2)C1CO` (centres undefined), the EC50 was greater than 275 µM and the IC50 is greater than 275 µM.
Regarding `O=C1OC(=O)c2c1ccc1ccc(Cl)cc21`, the outcome was inactive.
Take `CCCC(C(=O)OCCN1CCCC12CCCCC2)C1CCCC1` (centres undefined): the EC50 is greater than 200 µM and the half-inhibitory concentration (IC50) stood at 11 µM.
For the compound `O=C(O)c1cc2cc3c(cc2c2ccccc12)OCO3`, the EC50 was greater than 490 µM and the IC50 worked out at 282 µM.
As to `COc1cc2c(cc1OC)[N+]1(C)CCC3OCCC4C[N+]5(C)CCC26C5CC4C3C61` (centres undefined), the EC50 is greater than 372 µM and the IC50 is greater than 372 µM.
As for `O=C(OCC(Cl)(Cl)Cl)OCC(Cl)(Cl)Cl`, the EC50 was greater than 200 µM and the IC50 was greater than 200 µM.
Take `CCOC(=O)/C=C/c1ccc(Br)cc1`: the EC50 was greater than 28.2 µM and the IC50 is greater than 28.2 µM.
Turning to `CNS(=O)(=O)NN(C)S(=O)(=O)c1ccc2ccccc2c1`, the EC50 is greater than 759 µM and the IC50 was 110 µM.
The matching figures for `c1cncc(CSc2nc3ccccc3nc2-c2cccs2)c1`: greater than 1.55 µM and greater than 1.55 µM.
Consider `Cc1ccc(S(=O)(=O)SC/C=C\CSS(=O)(=O)c2ccc(C)cc2)cc1`, for which the result was inactive.
Take `O=C(O)/C=C/c1ccc(O)cc1`: the EC50 was greater than 200 µM and the IC50 was greater than 200 µM.
For `Cc1cc(N=O)cc(Cl)c1O`, the EC50 is greater than 200 µM and the IC50 stood at 10.5 µM.
With `CCOC(=O)C(CO)c1nc2c([nH]c1=O)c(=O)n(C)c(=O)n2C` (centres undefined), the EC50 was greater than 200 µM and the IC50 was greater than 200 µM.
On to `CC(=O)c1cccc(NC(=O)Nc2ncccc2C)c1`, for which the EC50 was 182 µM and the IC50 was greater than 200 µM.
As for `O=C(CC1Sc2ccccc2NC1=O)Nc1ccc([N+](=O)[O-])cc1[N+](=O)[O-]` (centres undefined), the EC50 was greater than 67.6 µM and the 50% inhibitory concentration (IC50) was greater than 67.6 µM.
With `O=C(N/N=C\c1cccnc1)c1ccncc1`, the EC50 was greater than 200 µM and the half-inhibitory concentration (IC50) was greater than 200 µM.
With `CCc1cccc(C(C)C)c1NC(=O)C(=O)CC(=O)c1c(C)n([O-])c2ccccc2[n+]1=O`, the EC50 is greater than 3.31 µM and the IC50 is greater than 3.31 µM.
Regarding `O=C(/C=N/O)Nc1ccc(Cl)c(I)c1`, the EC50 was greater than 79.4 µM and the IC50 stood at 64.6 µM.
With `O=C1OC(=O)C2C1C1(c3ccccc3)C(=O)C2(c2ccccc2)C(c2ccccc2)=C1c1ccccc1` (centres undefined), the outcome was inactive.
`O=C(O)c1ccccc1C(=O)CCC(=O)c1ccccc1C(=O)O`: the concentration giving a half-maximal response (EC50) was greater than 200 µM and the half-maximal inhibitory concentration (IC50) was greater than 200 µM.
`CC(=O)C(C)[P+](c1ccccc1)(c1ccccc1)c1ccccc1` (centres undefined): the EC50 was greater than 200 µM and the IC50 was 39.8 µM.
Regarding `Cc1ccc(C2=Nn3c(nc4sc(C)c(C)c4c3=O)SC2)cc1`, the EC50 was greater than 200 µM and the IC50 was greater than 200 µM.
As for `Oc1ccc(/C=N/c2nccs2)c(O)c1`, the EC50 is greater than 200 µM and the half-maximal inhibitory concentration (IC50) stood at 138 µM.
For the compound `CCOC(=O)C1Cc2ccc3c4c(ccc(c24)C1)CC(C(=O)OCC)C3`, the result was inactive.
For the compound `Cc1ccc(S(=O)(=O)N/N=C2/CCCOC2)cc1`, the EC50 was greater than 200 µM and the IC50 turned out to be 138 µM.
Consider `C/C(=C\c1ccccc1)C(O)C(=O)c1nc2ccc([N+](=O)[O-])cc2[nH]c1=O` (centres undefined), for which the outcome was inactive.
For `Fc1ccc(C2(CCCN3CCc4[nH]c5cc(F)ccc5c4C3)OCCO2)cc1`, the EC50 was greater than 200 µM and the IC50 worked out at 18.6 µM.
In the case of `O=c1[nH]c(O)c(/C=N\C(=S)Nc2cc(Cl)ccc2Cl)c(=O)[nH]1`, the EC50 was greater than 200 µM and the 50% inhibitory concentration (IC50) stood at 162 µM.
As for `O=[N+]([O-])c1cc(Br)cc2c1[nH]c1nc3ccc(C(F)(F)F)cc3nc12`, the EC50 is greater than 45.7 µM and the IC50 came out at 8.32 µM.
As to `CC1(C)Oc2cc(OCc3ccccc3)ccc2C2Oc3cc(OCc4ccccc4)c(O)cc3C21` (centres undefined), the EC50 is greater than 200 µM and the 50% inhibitory concentration (IC50) turned out to be 79.4 µM.
On to `OC1(c2ccc(-c3ccccc3)cc2)c2ccccc2C2=NCCN21` (centres undefined), for which the EC50 is greater than 200 µM and the IC50 is greater than 100 µM.
